Counter-ions that a name gives are not always drawn. Like-named read-outs stand apart in the source and are kept apart here. Blank lines part the entries; values can stand above or below the compound they belong to.
Assays:
[1] = tested on: TNFα release from U937 cells; assay: U937 Cell TNFα Release Assay (LPS-stimulated, TNFα ELISA); format: cell-based; conditions: Homo sapiens, read-out: TNFα release assay IC50
Method: The human monocyte-like cell line, U937 (ATCC #CRL-1593.2), is cultured in RPMI1640 media with 10% heat-inactivated fetal calf serum (GIBCO), glutamine and pen/strep at 37° C. and 5% CO2. Differentiation of U937 to monocytic/macrophage-like cells is induced by the addition of phorbol12-myristate 13-acetate (Sigma) at final concentration of 20 ng/ml to a culture of U937 cells at ˜0.5 million cells/ml and incubated for 24 hrs. The cells are centrifuged, washed with PBS and resuspended in fresh media without PMA and incubated for 24 hrs. Cells adherent to the culture flask are harvested by scraping, centrifugation, and resuspended in fresh media to 2 million cells/ml, and 0.2 ml is aliquoted to each of 96 wells in flat-bottom plate. Cells are then incubated for an additional 24 hrs to allow for recovery. The media is removed from the cells, and 0.1 ml of fresh media is added per well. 0.05 ml of serially diluted compound or control vehicle (Media with DMSO) is added to the cells. […] After 1 hr incubation, 0.05 ml of 400 ng/ml LPS (E Coli serotype 0111:B4, Sigma) in media is added for final concentration of 100 ng/ml. Cells are incubated at 37° C. for 4 hrs. After 4 hrs incubation, supernatants are harvest and assayed by ELISA for the presence of TNFα.
ELISA plates (NUNC-Immuno™ Plate Maxisorb™ Surface) were coated with purified mouse monoclonal IgG1 anti-human TNFα antibody (R&D Systems #MAB610; 1.25 ug/ml in sodium bicarbonate pH 8.0, 0.1 ml/well) and incubated at 4° C. Coating solution was aspirated the following day and wells were blocked with 1 mg/ml gelatin in PBS (plus 1× thimerasol) for 2 days at 4° C. Prior to using, wells were washed 3× with wash buffer (PBS with 0.05% Tween). Cultured media samples were diluted in EIA buffer (5 mg/ml bovine γ-globulin, 1 mg/ml gelatin, 1 ml/l Tween-20, 1 mg/ml thimerasol in PBS), added to wells (0.1 ml/well) in triplicate and allowed to incubate for 1.5 hr at 37° C. in a humidified chamber. Plates were again washed and 0.1 ml/well of a mixture of rabbit anti-human TNFα polyclonal antibodies in EIA buffer (1:400 dilution of Sigma #T8300, and 1:400 dilution of Calbiochem #654250) was added for 1 hr at 37° C. Plates were washed as before and peroxidase-conjugated goat anti-rabbit IgG (H+L) antibody (Jackson lmmunoResearch #111-035-144, 1 ug/ml in EIA buffer, 0.1 ml/well) was added for 45 min. After final washing, plates were developed with peroxidase-ABTS solution (Kirkegaard/Perry #50-66-01, 0.1 ml/well). Enzymatic conversion of ABTS to colored product was measured after 5-30 minutes using a SpectroMax 340 spectrophotometer (Molecular Devices) at 405 nm. TNF levels were quantitated from a recombinant human TNFα (R&D Systems #210-TA-010) standard curve using a quadratic parameter fit generated by SoftMaxPRO software. ELISA sensitivity was approximately 30 pg TNF/ml. IC50 values for compounds were generated using BioAssay Solver.

[2] = target: Recombinant MAPKAPK2 (MK-2) (Homo sapiens, UniProt P49137); assay: Determination of MK-2 IC50 (anion exchange resin capture assay, phosphorylation of HSP-peptide); format: biochemical
Method: The phosphorylation of HSP-peptide ([…]) by MAPKAPK2 was measured using an anion exchange resin capture assay method. […] The reaction was terminated and [γ^33P]ATP was removed from solution by the addition of 150 μl of AG 1×8 ion exchange resin in 900 mM sodium formate pH 3.0. A 50 μl aliquot of head volume was removed from the quenched reaction mixture and added to a 96-well plate, 150 μl of Microscint-40 (Packard) was added and the amount of phosphorylated-peptide was determined. Allow the Microscint to sit in the plates for 60 minutes prior to counting.
Compounds are evaluated as potential inhibitors of the MK2 kinase by measuring their effects on MK2 phosphorylation of the peptide substrate. Compounds may be screened initially at two concentrations prior to determination of IC50 values. Screening results are expressed as percent inhibition at the concentrations of compound tested. For IC50 value determinations, compounds are tested at six concentrations in ten-fold serial dilutions with each concentration tested in triplicate. Results are expressed as IC50 values in micromolar. The assay is performed at a final concentration of 2% DMSO.

[3] = tested on: TNFα production; assay: Lipopolysaccharide (LPS)-Induced TNFα Production (Rat LPS assay, serum TNFα ELISA); format: in vivo, Lewis rats; conditions: 20 mpk (IG)
Method: Adult male 225-250 gram Lewis rats (Harlan Sprague-Dawley) were used. Rats were fasted 18 hr prior to oral dosing, and allowed free access to water throughout the experiment. Each treatment group consisted of 5 animals.
Compounds were prepared as a suspension in a vehicle consisting of 0.5% methylcellulose, 0.025% Tween-20 in PBS. Compounds or vehicle were orally administered in a volume of 1 ml using an 18 gauge gavage needle. LPS (E. coli serotype 0111:B4, Lot #39H4103, Cat. # L-2630, Sigma) was administered 1-4 hr later by injection into the penile vein at a dose of 1 mg/kg in 0.5 ml sterile saline. Blood was collected in serum separator tubes via cardiac puncture 1.5 hr after LPS injection, a time point corresponding to maximal TNFα production. […]
ELISA plates (NUNC-Immuno™ Plate Maxisorb™ Surface) were coated with 0.1 ml per well of an Protein G purified fraction of a 2.5 ug/ml of hamster anti-mouse/rat TNFα monoclonal antibody TN19.12 (2.5 ug/ml in PBS, 0.1 ml/well). […] Enzymatic conversion of ABTS to colored product was measured after ˜30 minutes using a SpectroMax 340 spectrophotometer (Molecular Devices Corp.) at 405 nm. TNF levels in serum were quantitated from a recombinant rat TNFα (BioSource International, Cat. #PRC3014.) standard curve using a quadratic parameter fit generated by SoftMaxPRO software. […]

[4] = U-937, U937 cells, LPS 100 ng/ml, 4 hrs

Recombinant MAPKAPK2 (MK-2), sequence (P49137 whole entry, species assumed): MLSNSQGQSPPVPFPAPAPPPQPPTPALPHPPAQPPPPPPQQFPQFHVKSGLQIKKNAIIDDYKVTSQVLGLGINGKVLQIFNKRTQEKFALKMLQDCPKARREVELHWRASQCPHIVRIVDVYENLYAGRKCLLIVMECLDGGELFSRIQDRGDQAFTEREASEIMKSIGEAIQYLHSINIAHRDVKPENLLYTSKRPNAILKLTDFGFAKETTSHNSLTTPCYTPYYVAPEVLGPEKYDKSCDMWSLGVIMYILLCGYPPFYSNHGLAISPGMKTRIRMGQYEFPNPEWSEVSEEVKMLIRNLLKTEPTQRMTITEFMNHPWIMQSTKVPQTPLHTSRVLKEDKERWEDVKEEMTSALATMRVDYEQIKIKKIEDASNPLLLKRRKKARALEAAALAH

SMILES: N#Cc1c(N)nc2c(c1-c1ccco1)CCc1cn[nH]c1-2 [Example 105, 8-amino-6-(2-furyl)-4,5-dihydro-1H-pyrazolo[4,3-h]quinoline-7-carbonitrile]
- IC50 [1, 4]: 0.9 µM

SMILES: N#Cc1c(-c2cnc[nH]2)cc(-c2cccc(O)c2)nc1N [Example 4, 2-amino-6-(3-hydroxyphenyl)-4-(1H-imidazol-5-yl)nicotinonitrile trifluoroacetate]
- IC50 ([1]; U-937, 4 h): 7 µM
- Rat LPS assay: inhibition of TNFα production [3]: 41%

SMILES: N#Cc1c(N)nc2c(c1-c1cccc(F)c1F)CCc1[nH]ncc1-2.O=C(O)C(F)(F)F.O=C(O)C(F)(F)F [Example 102, 2-amino-4-(2,3-difluorophenyl)-6,7-dihydro-5H-pyrazolo[3,4-h]quinoline-3-carbonitrile bis(trifluoroacetate)]
- IC50 ([1]; U-937, 4 h): 4 µM
- Rat LPS assay: inhibition of TNFα production [3]: 83%

SMILES: N#Cc1c(-c2ccc(B(O)O)cc2)cc(-c2ccco2)nc1N [Example 88, bis(trifluoroacetate)]
- IC50 [2]: 64.6 µM

Continued, values first:

- IC50 [1, 4]: 4 µM
SMILES: N#Cc1c(-c2ccco2)cc(-c2cc[nH]n2)nc1N [Example 106, 2-amino-4-(2-furyl)-6-(1H-pyrazol-3-yl)nicotinonitrile trifluoroacetate]

- IC50 [2]: 127 µM
SMILES: CCOCC1Cc2c(nc(N)c(C#N)c2N)O1 (stereo not drawn) [Example 125, trifluoroacetate]

- IC50 [1, 4]: 17.7 µM
SMILES: N#Cc1c(N)nc2c(c1-c1ccccc1)CCc1n[nH]cc1-2 [Example 100, 2-amino-4-phenyl-6,8-dihydro-5H-pyrazolo[3,4-h]quinoline-3-carbonitrile bis(trifluoroacetate)]

Source: patent publication US20040142978A1, “Aminocyanopyridine inhibitors of mitogen activated protein kinase-activated protein kinase-2” (Pharmacia Corporation, priority 2002, published 2004)
